Source: PMC3003306 (Structure (London, England : 1993), 2010)

Molecular target: T1, IGPS (HisF-HisH heterodimer), glutaminase site in HisH (Thermotoga maritima, UniProt Q9X0C8)
T1 sequence (Q9X0C8 1-201): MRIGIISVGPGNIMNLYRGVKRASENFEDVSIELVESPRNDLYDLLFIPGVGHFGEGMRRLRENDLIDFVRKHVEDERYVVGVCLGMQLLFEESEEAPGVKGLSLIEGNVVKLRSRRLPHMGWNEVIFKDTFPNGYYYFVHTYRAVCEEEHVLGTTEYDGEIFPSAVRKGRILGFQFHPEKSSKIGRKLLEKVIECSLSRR
T1 sequence (Q9X0C6 1-253 partner): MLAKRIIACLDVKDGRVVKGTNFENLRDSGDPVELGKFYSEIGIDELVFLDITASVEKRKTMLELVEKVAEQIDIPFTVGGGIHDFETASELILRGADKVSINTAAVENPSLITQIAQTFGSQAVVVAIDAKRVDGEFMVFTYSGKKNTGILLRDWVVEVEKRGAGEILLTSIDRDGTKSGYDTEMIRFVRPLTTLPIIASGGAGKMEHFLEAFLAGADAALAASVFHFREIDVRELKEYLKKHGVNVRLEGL
Experiment: covalent modification of HisH C84 followed by DTNB analysis
Type: binding
Conditions: 1.5 molar equivalents acivicin, room temperature, HisH active site nucleophile C84

N[C@H](C(=O)O)[C@@H]1CC(Cl)=NO1 [acivicin]
covalent modification of HisH C84 followed by DTNB analysis; NMR: IGPS (HisH-C84) was covalently modified with acivicin
